The structures appear in SMILES notation. Where only a bound is given, the exact number is not on record here.

For one data set, the system named is U937 cells. Briefly: Anti-proliferative assay (MTT), U937. In kind it is cell-based. Conditions: Homo sapiens, U-937, 48 h, triplicate, mean ± SD. The protocol: (§1) The MTT method was used for the determination of anti-proliferative activities of selected compounds against tumor cells. Human histiocytic lymphoma cells U937, human chronic myeloid leukemia cells K562, liver carcinoma alexander cells PLC/PRF/5, human prostate cancer cells PC-3, human ovarian clear cell carcinoma cells ES-2, human hepatocellular carcinoma cells HepG2 were selected as tested tumor cell lines. Firstly, the cells were cultured in RPMI 1640 medium with 10% FBS at 37 °C in 5% CO2 humidified incubator. Cells (100 μL) in logarithmic phase were inoculated in 96-well plates and allowed to grow for 4 h. Subsequently, inhibitors (100 μL) at the tested concentration were added, followed by incubation for 48 h. Then, to the mixture was added MTT solution (20 μL, 5 mg/mL) and further incubated for 4 h. The plates were centrifuged at 800 rpm for 3 min. The supernatant was poured off and the formed formazan was dissolved in DMSO (200 μL). Finally, the mixture was shaken for 15 min and the absorbance values of the formazan solution were measured at 570 nm with a plate reader (Varioskan, Thermo, Waltham, MA, USA). All the tumor cells were owned by our laboratory.

Another data set concerns ES-2 cells. Nature of the data set: Anti-proliferative assay (MTT), ES-2. In kind it is cell-based. Particulars: Homo sapiens, 48 h, triplicate, mean ± SD. Here is the method: as §1
The target of data set [1] is T1, porcine kidney aminopeptidase N (APN) (Sus scrofa, UniProt P15145).
T1 construct: purchased Enzo Life Sciences; host or cells: porcine kidney microsomes (tissue-derived)
T1 sequence (P15145 1-963): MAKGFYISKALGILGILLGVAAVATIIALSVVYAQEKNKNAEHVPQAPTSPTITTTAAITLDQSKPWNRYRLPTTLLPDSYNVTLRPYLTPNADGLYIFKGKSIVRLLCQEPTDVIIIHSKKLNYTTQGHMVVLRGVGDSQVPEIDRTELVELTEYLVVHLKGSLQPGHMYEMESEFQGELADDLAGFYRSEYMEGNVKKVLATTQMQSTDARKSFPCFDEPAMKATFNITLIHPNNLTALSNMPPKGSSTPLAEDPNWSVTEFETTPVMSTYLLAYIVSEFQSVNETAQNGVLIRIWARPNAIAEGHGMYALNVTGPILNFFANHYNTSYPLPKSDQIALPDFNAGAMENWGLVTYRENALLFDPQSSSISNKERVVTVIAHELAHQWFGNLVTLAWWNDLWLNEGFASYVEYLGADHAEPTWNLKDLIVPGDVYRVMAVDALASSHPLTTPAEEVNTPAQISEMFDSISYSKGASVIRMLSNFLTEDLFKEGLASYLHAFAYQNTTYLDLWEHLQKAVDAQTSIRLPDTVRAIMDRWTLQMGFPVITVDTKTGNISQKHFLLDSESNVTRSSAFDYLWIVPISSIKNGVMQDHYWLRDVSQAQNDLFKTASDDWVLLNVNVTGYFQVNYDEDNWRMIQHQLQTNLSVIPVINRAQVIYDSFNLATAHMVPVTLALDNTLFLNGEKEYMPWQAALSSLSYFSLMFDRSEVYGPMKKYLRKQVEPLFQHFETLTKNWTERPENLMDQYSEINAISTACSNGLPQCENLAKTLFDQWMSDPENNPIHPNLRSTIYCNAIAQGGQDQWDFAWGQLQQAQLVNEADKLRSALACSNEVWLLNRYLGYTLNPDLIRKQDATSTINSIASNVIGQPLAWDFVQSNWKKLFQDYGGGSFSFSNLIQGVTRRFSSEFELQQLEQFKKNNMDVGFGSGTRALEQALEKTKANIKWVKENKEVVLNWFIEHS
Briefly: Enzymatic inhibition assay against APN in vitro (L-Leu-p-nitroanilide substrate). Format: biochemical. Conditions: for IC50: soluble APN from porcine kidney microsomal, 37 °C, 30 min, triplicate, mean ± SD. The protocol:
The enzymatic inhibitory activities of target compounds were evaluated using L-Leu-p-nitroanilide (Sigma-Aldrich, St. Louis, MO, USA) as substrate and soluble APN from porcine kidney microsomal (Enzo Life Sciences, Farmingdale, NY, USA) as enzyme. Firstly, the substrate was dissolved in DMSO to a concentration of 16 mmol/L and the enzyme was dissolved in buffer solution of 50 mM PBS (pH = 7.2) for a concentration of 0.15 IU/L. Subsequently, inhibitors (40 μL) and PBS (145 μL) were added into the 96-well plates, followed by the addition of substrate (5 μL) and enzyme (10 μL). After incubation at 37 °C for 30 min, the absorbance values were measured at 405 nm with a plate reader (Varioskan, Thermo Fisher Scientific, Waltham, MA, USA).

For another data set, the system named is PC-3 cells. Nature of the data set: Anti-proliferative assay (MTT), PC-3. Particulars: Homo sapiens, 48 h, triplicate, mean ± SD. In kind it is cell-based. Here is the method:
as §1

Another data set relates to HepG2 cells. Briefly: Anti-proliferative assay (MTT), HepG2. Conditions: Homo sapiens, 48 h, triplicate, mean ± SD. In kind it is cell-based. The protocol:
as §1

In a further data set the test system is rat thoracic aorta rings. Nature of the data set: Rat aortic ring assay (ex vivo anti-angiogenesis). In kind it is cell-based, Sprague Dawley rats. Here is the method: The thoracic aortas were separated from 8- to 10-week-old male Sprague Dawley rats and cut into rings with a 1-mm-long cross-section after removal of the connective tissues around the aortas. The fresh aortic ring was added into the 96-well plates pre-coated with matrigel (50 μL, BD bioscience), and covered with another 50 μL of matrigel. After incubation at 37 °C in 5% CO2 for 0.5 h, the tested compounds (100 μL) in M199 culture medium with 10% FBS was added to the mixture and incubated at 37 °C in 5% CO2 for 9 d. For the treatment group, the M199 culture medium with 10% FBS and inhibitors was changed every three days. For the control group, the M199 culture medium with 10% FBS and 0.5% DMSO was changed every three days. The formed micro-vessels were photographed by inverted microscope at 100× magnification. Experiments were repeated three times. All experiments involving laboratory animals were performed with the approval of the Laboratory Animal Welfare Review Committee of Shandong University of Traditional Chinese Medicine.

For the next data set, the system named is PLC/PRF/5 cells. Nature of the data set: Anti-proliferative assay (MTT), PLC/PRF/5. In kind it is cell-based. Conditions: Homo sapiens, 48 h, triplicate, mean ± SD. Here is the method: as §1
Another data set has as its system K562 cells. Nature of the data set: Anti-proliferative assay (MTT), K562. In kind it is cell-based. Particulars: Homo sapiens, 48 h, triplicate, mean ± SD. The protocol:
as §1

As to `CC(=O)N1N=C(c2c(Cl)cccc2Cl)CC1c1ccccc1OCC(=O)NO` (stereo not drawn) [Compound 14o, 2-(2-(1-Acetyl-3-(2,6-dichlorophenyl)-4,5-dihydro-1H-pyrazol-5-yl)phenoxy)-N-hydroxyacetamide], the melting point was 174 to 176 °C. This molecule also displayed an IC50 in the data set with U937 cells of 38.3 ± 3.6 µM. Moreover, in the data set with ES-2 cells, the IC50 amounted to 115 ± 9.7 µM. Moreover, in data set [1] (ratio of APN IC50 values), the “fold more potent against APN than lead compound 13c” value is on record as “over 9 fold” and the “fold more potent against APN than positive control bestatin” value is “over 1419 fold”. In [1], this molecule yielded an IC50 of 0.0062 ± 0.0004 µM. In the data set with PC-3 cells, this molecule had an IC50 of 45.8 ± 4.1 µM. The IC50 in the data set on HepG2 cells was found to be 84.2 ± 7.6 µM. The “growth of micro-vessels derived from the thoracic aorta rings” value in the data set with rat thoracic aorta rings (1 μM and 50 μM, 9 d incubation) was “could prevent the growth of micro-vessels derived from the thoracic aorta rings in a dose–dependent manner”. Also, the “micro-vessels at 50 μM compared with the group treated with 1 μM” value with rat thoracic aorta rings (50 μM, 9 d incubation) is listed as “obviously reduced micro-vessels”. In addition, the “anti-angiogenic activity compared with bestatin” value in the data set on rat thoracic aorta rings (same concentration of 50 μM) is recorded as “much better than that of bestatin”. Half-maximal inhibition in the data set on PLC/PRF/5 cells (IC50) was put at 88.5 ± 7.4 µM. In the data set on K562 cells, this molecule showed an IC50 of 10.4 ± 1.2 µM.

Turning to `CC(C)C[C@H](NC(=O)[C@@H](O)[C@H](N)Cc1ccccc1)C(=O)O` [Bestatin, bestatin, reference compound], the IC50 in the data set on U937 cells, in the data set with ES-2 cells, with PC-3 cells, in the data set on HepG2 cells, with PLC/PRF/5 cells and in the data set on K562 cells was > 500 µM in each case.

Take `NC(=O)N1N=C(c2ccccc2I)CC1c1cccc(Br)c1OCC(=O)NO` (stereo not drawn) [Compound 14r, 5-(3-Bromo-2-(2-(hydroxyamino)-2-oxoethoxy)phenyl)-3-(2-iodophenyl)-4,5-dihydro-1H-pyrazole-1-carboxamide]: the melting point was in the range of 140 to 142 °C. In addition, in data set [1], the IC50 was 3.4 ± 0.3 µM.

In turn, `NC(=O)N1N=C(c2ccccc2I)CC1c1ccc(Br)cc1OCC(=O)NO` (stereo not drawn) [Compound 14t, 5-(4-Bromo-2-(2-(hydroxyamino)-2-oxoethoxy)phenyl)-3-(2-iodophenyl)-4,5-dihydro-1H-pyrazole-1-carboxamide] showed a melting point of 196 to 198 °C. The molecule further yielded an IC50 in data set [1] of 1.6 ± 0.1 µM.

In turn, `CC(=O)N1N=C(c2ccccc2I)CC1c1c(Cl)cccc1OCC(=O)NO` (stereo not drawn) [Compound 14y, 2-(2-(1-Acetyl-3-(2-iodophenyl)-4,5-dihydro-1H-pyrazol-5-yl)-3-chlorophenoxy)-N-hydroxyacetamide] yielded a melting point of 168 to 170 °C. Further, the IC50 in data set [1] stood at 0.023 ± 0.001 µM.

Molecule `CC(=O)N1N=C(c2ccc(Cl)cc2Cl)CC1c1ccccc1OCC(=O)NO` (stereo not drawn) [Compound 14l, 2-(2-(1-Acetyl-3-(2,4-dichlorophenyl)-4,5-dihydro-1H-pyrazol-5-yl)phenoxy)-N-hydroxyacetamide] gave a melting point of 128 to 130 °C. In addition, the IC50 in data set [1] is 0.58 ± 0.04 µM.

`CC(=O)N1N=C(c2cccc(Br)c2)CC1c1ccccc1OCC(=O)NO` (stereo not drawn) [Compound 14b, 2-(2-(1-Acetyl-3-(3-bromophenyl)-4,5-dihydro-1H-pyrazol-5-yl)phenoxy)-N-hydroxy acetamide] displayed a melting point of 152 to 154 °C. This molecule also returned an IC50 in data set [1] of 0.32 ± 0.03 µM.

For the molecule `CC(=O)N1N=C(c2ccccc2I)CC1c1cccc(Br)c1OCC(=O)NO` (stereo not drawn) [Compound 14q, 2-(2-(1-Acetyl-3-(2-iodophenyl)-4,5-dihydro-1H-pyrazol-5-yl)-6-bromophenoxy)-N-hydroxyacetamide], the melting point lay in the range of 96 to 98 °C. Moreover, the IC50 in [1] was found to be 3.5 ± 0.2 µM.

`CC(=O)N1N=C(c2ccccc2I)CC1c1ccccc1OCC(=O)NO` (stereo not drawn) [Compound 14i, 2-(2-(1-Acetyl-3-(2-iodophenyl)-4,5-dihydro-1H-pyrazol-5-yl)phenoxy)-N-hydroxy acetamide] displayed a melting point of 174 to 176 °C. In data set [1], this molecule returned an IC50 of 0.015 ± 0.001 µM.

In the case of `CC(=O)N1N=C(c2ccccc2I)CC1c1c(Br)cccc1OCC(=O)NO` (stereo not drawn) [Compound 14w, 2-(2-(1-Acetyl-3-(2-iodophenyl)-4,5-dihydro-1H-pyrazol-5-yl)-3-bromophenoxy)-N-hydroxyacetamide], the melting point was in the range of 152 to 154 °C. Half-maximal inhibition in data set [1] (IC50) required 0.024 ± 0.001 µM.

On to `CC(=O)N1N=C(c2ccccc2OCc2ccccc2Br)CC1c1ccccc1OCC(=O)NO` (stereo not drawn) [Compound 14cc, 2-(2-(1-Acetyl-3-(2-((2-bromobenzyl)oxy)phenyl)-4,5-dihydro-1H-pyrazol-5-yl)phenoxy)-N-hydroxyacetamide], for which the melting point is 82 to 84 °C. The molecule further returned an IC50 in data set [1] of 0.068 ± 0.004 µM.

Turning to `CC(=O)N1N=C(c2ccccc2Cl)CC1c1ccccc1OCC(=O)NO` (stereo not drawn) [Compound 14h, 2-(2-(1-Acetyl-3-(2-chlorophenyl)-4,5-dihydro-1H-pyrazol-5-yl)phenoxy)-N-hydroxy acetamide], the melting point is 166 to 168 °C. Also, the IC50 in data set [1] is 0.029 ± 0.002 µM.

The IC50 is the midpoint of a concentration-inhibition curve. A word on the melting point: it is the temperature of the solid-liquid transition.

The record behind these values is article PMC9736874, “Development of Hydroxamate Derivatives Containing a Pyrazoline Moiety as APN Inhibitors to Overcome Angiogenesis” (Molecules, 2022).
